Where a name gives a salt, the structure may show the parent alone. Read-outs that look alike come from different tables or passages of the source.

Type in all cases: biochemical
The target in assay [1] is Human Tyk2 kinase domain (Homo sapiens (Human), UniProt P29597). In words: Tyk2 Inhibition Assay (Example A, Omnia kinase fluorescence peptide substrate assay). As to conditions: TYK2 Enzyme IC50 1 mM ATP, averaged IC50 ranges. An outline of the steps:
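Omnia Sox-peptide kinetic fluorescence assay (ex 360/em 485 nm, read every 50 s for 45 min) with 1 nM human Tyk2 kinase domain (aa 886–1187, His tag cleaved, baculovirus-expressed), 1 mM ATP, 8 μM Omnia Y12 peptide, in 25 mM HEPES pH 7.4, 10 mM MgCl2, 0.01% Triton X-100, 1 mM DTT, 2% DMSO. IC50 from 4-parameter logistic fit of percent of control.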

In assay [2] the target is JAK3 (Homo sapiens (Human), UniProt P52333). Briefly: JAK3 Inhibition Assay (Example D, Omnia kinase fluorescence peptide substrate assay). Put shortly:
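Mixture held 2 nM JAK3, 1 mM ATP and 10 μM Omnia Y7 peptide in 25 mM HEPES pH 7.4, 10 mM MgCl2, 0.01% Triton X-100, 1 mM DTT, 2% DMSO final. Sox fluorescence (ex 360/em 485 nm) was read every 50 s for 45 min. IC50 came from a 4-parameter logistic fit of percent of control.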

Assay [3] addresses JAK1 (Homo sapiens (Human), UniProt P23458). In words: JAK1 Inhibition Assay (Example B, Omnia kinase fluorescence peptide substrate assay). An outline of the steps:
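Recombinant human JAK1 (12.5 nM) with 1 mM ATP and 8 μM Omnia Y12 Sox-peptide in 25 mM HEPES pH 7.4, 10 mM MgCl2, 0.01% Triton X-100, 1 mM DTT, 2% DMSO final. Phosphorylation read kinetically (ex 360/em 485 nm, 45 min); IC50 from 4-parameter fit of percent of control.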

The target in assay [4] is JAK2 (Homo sapiens (Human), UniProt O60674). In words: JAK2 Inhibition Assay (Example C, Omnia kinase fluorescence peptide substrate assay). The following applies: JAK2 Enzyme IC50 1 mM ATP, averaged IC50 ranges. An outline of the steps: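 4 nM JAK2 with 1 mM ATP and 10 μM Omnia Y7 peptide in 25 mM HEPES pH 7.4, 10 mM MgCl2, 0.01% Triton X-100, 1 mM DTT, 2% DMSO. Sox fluorescence (ex 360/em 485 nm) read every 50 s for 45 min; IC50 from 4-parameter fit of percent of control.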
JAK2, sequence (O60674 whole entry): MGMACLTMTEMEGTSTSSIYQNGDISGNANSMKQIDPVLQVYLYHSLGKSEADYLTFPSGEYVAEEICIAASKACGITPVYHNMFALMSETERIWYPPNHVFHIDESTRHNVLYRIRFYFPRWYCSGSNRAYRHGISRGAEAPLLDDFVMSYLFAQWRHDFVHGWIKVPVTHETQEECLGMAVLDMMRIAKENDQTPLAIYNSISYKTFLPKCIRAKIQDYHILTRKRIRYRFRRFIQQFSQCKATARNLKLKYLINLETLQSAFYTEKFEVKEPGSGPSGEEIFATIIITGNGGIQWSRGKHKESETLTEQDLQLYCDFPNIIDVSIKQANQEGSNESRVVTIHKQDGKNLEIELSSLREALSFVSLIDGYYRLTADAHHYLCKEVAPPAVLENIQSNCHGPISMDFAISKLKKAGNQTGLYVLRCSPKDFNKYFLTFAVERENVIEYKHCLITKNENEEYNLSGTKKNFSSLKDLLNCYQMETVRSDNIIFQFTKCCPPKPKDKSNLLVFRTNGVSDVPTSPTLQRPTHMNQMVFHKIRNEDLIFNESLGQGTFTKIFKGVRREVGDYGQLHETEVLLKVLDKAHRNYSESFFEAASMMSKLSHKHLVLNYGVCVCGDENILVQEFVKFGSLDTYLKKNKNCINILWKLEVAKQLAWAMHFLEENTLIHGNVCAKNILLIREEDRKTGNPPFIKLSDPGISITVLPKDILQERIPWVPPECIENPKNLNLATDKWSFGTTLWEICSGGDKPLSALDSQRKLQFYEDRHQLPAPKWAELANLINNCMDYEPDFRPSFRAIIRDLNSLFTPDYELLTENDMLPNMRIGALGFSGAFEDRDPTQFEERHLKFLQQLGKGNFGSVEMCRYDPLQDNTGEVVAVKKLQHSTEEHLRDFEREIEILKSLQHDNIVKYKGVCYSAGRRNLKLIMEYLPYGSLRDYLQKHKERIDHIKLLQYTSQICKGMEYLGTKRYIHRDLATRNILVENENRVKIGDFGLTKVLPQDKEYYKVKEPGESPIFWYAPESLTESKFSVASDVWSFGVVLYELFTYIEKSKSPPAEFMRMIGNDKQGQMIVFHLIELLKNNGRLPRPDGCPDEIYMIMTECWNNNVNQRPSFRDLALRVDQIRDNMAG

[5] abbreviates: JAK1 Enzyme IC50 1 mM ATP, 1 mM ATP, averaged IC50 ranges.

JAK1, sequence (P23458 whole entry): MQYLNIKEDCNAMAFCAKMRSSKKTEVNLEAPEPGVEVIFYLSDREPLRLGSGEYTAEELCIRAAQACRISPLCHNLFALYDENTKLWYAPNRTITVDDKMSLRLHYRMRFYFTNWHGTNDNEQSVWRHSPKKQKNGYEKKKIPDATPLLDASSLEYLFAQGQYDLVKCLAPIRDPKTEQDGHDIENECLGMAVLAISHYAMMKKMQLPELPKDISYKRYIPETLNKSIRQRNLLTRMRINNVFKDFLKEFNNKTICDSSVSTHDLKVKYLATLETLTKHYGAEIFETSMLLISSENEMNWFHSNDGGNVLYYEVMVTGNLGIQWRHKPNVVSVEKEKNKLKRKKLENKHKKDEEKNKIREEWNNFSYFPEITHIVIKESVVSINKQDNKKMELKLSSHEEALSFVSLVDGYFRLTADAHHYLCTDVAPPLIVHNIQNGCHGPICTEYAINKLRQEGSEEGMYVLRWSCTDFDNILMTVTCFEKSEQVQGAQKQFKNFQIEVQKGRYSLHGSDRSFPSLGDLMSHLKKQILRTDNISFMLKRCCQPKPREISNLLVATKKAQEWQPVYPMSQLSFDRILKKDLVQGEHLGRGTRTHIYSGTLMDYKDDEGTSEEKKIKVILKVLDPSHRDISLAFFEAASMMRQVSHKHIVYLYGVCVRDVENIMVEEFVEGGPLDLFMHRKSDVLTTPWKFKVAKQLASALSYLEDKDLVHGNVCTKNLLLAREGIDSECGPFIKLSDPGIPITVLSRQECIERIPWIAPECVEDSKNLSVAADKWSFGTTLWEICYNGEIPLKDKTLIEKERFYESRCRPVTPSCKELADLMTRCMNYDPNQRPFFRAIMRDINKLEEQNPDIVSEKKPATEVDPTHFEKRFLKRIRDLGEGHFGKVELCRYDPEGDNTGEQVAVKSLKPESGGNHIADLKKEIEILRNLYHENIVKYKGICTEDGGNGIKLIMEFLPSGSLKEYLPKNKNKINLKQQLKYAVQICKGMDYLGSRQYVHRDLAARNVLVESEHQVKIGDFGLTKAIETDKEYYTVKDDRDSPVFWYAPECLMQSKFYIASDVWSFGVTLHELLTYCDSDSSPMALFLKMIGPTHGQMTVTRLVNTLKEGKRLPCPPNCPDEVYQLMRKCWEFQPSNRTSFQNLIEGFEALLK
Human Tyk2 kinase domain, sequence (P29597 886-1187): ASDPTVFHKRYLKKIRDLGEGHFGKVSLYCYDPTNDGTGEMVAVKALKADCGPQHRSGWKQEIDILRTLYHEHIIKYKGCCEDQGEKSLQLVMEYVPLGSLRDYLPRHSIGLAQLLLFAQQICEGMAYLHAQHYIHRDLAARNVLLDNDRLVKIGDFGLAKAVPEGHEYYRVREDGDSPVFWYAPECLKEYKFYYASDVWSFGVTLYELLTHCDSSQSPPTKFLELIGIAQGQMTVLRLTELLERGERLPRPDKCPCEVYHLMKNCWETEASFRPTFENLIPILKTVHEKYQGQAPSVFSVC
JAK3, sequence (P52333 whole entry): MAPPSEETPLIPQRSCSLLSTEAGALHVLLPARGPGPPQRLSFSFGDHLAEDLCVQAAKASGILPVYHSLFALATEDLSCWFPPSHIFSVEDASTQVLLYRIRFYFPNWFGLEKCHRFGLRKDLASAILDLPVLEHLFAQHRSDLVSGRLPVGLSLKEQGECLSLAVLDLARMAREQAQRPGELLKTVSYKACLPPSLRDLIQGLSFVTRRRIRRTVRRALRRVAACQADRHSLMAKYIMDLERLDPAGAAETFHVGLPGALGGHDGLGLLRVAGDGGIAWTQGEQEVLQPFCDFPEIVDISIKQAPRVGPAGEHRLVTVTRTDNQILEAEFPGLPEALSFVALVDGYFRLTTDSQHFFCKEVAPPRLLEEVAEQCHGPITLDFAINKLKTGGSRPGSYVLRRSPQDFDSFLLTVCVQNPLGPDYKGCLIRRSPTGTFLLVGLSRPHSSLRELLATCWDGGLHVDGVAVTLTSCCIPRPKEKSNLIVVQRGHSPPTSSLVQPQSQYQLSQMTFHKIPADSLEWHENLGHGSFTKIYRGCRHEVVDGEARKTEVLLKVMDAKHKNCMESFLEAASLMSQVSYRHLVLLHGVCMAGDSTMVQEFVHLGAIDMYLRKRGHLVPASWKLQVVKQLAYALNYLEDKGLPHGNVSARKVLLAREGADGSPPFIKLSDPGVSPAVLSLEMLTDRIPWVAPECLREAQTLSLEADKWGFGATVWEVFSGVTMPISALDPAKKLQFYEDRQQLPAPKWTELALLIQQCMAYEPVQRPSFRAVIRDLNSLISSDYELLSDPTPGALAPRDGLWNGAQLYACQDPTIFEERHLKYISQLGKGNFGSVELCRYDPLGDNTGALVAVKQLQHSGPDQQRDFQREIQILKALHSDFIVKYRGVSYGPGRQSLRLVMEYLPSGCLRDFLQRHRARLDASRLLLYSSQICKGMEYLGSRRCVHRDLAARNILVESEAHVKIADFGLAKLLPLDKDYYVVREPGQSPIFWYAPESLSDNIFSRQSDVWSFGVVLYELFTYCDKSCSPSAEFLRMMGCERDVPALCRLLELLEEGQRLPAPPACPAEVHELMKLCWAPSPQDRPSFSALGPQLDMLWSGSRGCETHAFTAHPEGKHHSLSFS

With `CCC(CC)n1cc(-c2nc(-c3cnn([C@H]4C[C@@H](O)C4)c3)cn3nccc23)cn1` [Example 119, cis-3-(4-(4-(1-(pentan-3-yl)-1H-pyrazol-4-yl)pyrazolo[1,5-a]pyrazin-6-yl)-1H-pyrazol-1-yl)cyclobutanol], the IC50 in assay [1] was less than 10 nM; in assay [2] it was 1000 to 10000 nM; in assay [3] (setting [5]), 100 to 1000 nM; in assay [4], 10 to 100 nM.

On to `CCC(CC)n1cc(-c2nc(-c3cnn(C[C@H]4C[C@@H](O)C4)c3)cn3nccc23)cn1` [Example 120, (1s,3s)-3-((4-(4-(1-(pentan-3-yl)-1H-pyrazol-4-yl)pyrazolo[1,5-a]pyrazin-6-yl)-1H-pyrazol-1-yl)methyl)cyclobutanol], for which the IC50 in assay [1] fell in the range of 10 to 100 nM; in assay [2], 1000 to 10000 nM; in assay [3], 100 to 1000 nM; in assay [4], 10 to 100 nM.

On to `CCC(CC)n1cc(-c2nc(-c3cnn(C(C)(C)CO)c3)cn3nccc23)cn1` [Example 124, 2-methyl-2-(4-(4-(1-(pentan-3-yl)-1H-pyrazol-4-yl)pyrazolo[1,5-a]pyrazin-6-yl)-1H-pyrazol-1-yl)propan-1-ol], for which the IC50 lay within 10 to 100 nM in assay [1], 1000 to 10000 nM in assay [2], 100 to 1000 nM in assay [3] and 10 to 100 nM in assay [4].

Turning to `CCC(CC)n1cc(-c2nc(-c3cnn([C@@H](C)CO)c3)cn3nccc23)cn1` [Example 125, (S)-2-(4-(4-(1-(pentan-3-yl)-1H-pyrazol-4-yl)pyrazolo[1,5-a]pyrazin-6-yl)-1H-pyrazol-1-yl)propan-1-ol], the IC50 in assay [1] was 10 to 100 nM; in assay [2] it was 1000 to 10000 nM; in assay [3] (setting [5]), 1000 to 10000 nM; in assay [4], 100 to 1000 nM.

`CCC(CC)n1cc(-c2nc(-c3cnn(C[C@@H]4CNCCO4)c3)cn3nccc23)cn1` [Example 127, (S)-2-((4-(4-(1-(pentan-3-yl)-1H-pyrazol-4-yl)pyrazolo[1,5-a]pyrazin-6-yl)-1H-pyrazol-1-yl)methyl)morpholine trifluoroacetic acid]: the IC50 in assay [1] lay within 100 to 1000 nM; in assay [2], 1000 to 10000 nM; in assay [3], 1000 to 10000 nM; in assay [4] it was 100 to 1000 nM.

As for `CCC(CC)n1cc(-c2nc(-c3cnn(C[C@@H](CO)N(C)C)c3)cn3nccc23)cn1` [Example 129, (S)-2-(dimethylamino)-3-(4-(4-(1-(pentan-3-yl)-1H-pyrazol-4-yl)pyrazolo[1,5-a]pyrazin-6-yl)-1H-pyrazol-1-yl)propan-1-ol], the IC50 in assay [1] fell in the range of 10 to 100 nM; in assay [2], 1000 to 10000 nM; in assay [3] (setting [5]), 100 to 1000 nM; in assay [4], 10 to 100 nM.

Turning to `CCC(CC)n1cc(-c2nc(-c3cnn(C[C@@H](N)CO)c3)cn3nccc23)cn1` [Example 130, (R)-2-amino-3-(4-(4-(1-(pentan-3-yl)-1H-pyrazol-4-yl)pyrazolo[1,5-a]pyrazin-6-yl)-1H-pyrazol-1-yl)propan-1-ol], the IC50 lay within 10 to 100 nM in assay [1], 1000 to 10000 nM in assay [2], 1000 to 10000 nM in assay [3] and 10 to 100 nM in assay [4].

As to `CCC(CC)n1cc(-c2nc(-c3cnn(C[C@H](CO)N(C)C)c3)cn3nccc23)cn1` [Example 131, (R)-2-(dimethylamino)-3-(4-(4-(1-(pentan-3-yl)-1H-pyrazol-4-yl)pyrazolo[1,5-a]pyrazin-6-yl)-1H-pyrazol-1-yl)propan-1-ol], the IC50 was 10 to 100 nM in assay [1], 1000 to 10000 nM in assay [2], 100 to 1000 nM in assay [3] (setting [5]) and 10 to 100 nM in assay [4].

In the case of `CCC(CC)n1cc(-c2nc(-c3cnn(CCNC4CC4)c3)cn3nccc23)cn1` [Example 134, N-(2-(4-(4-(1-(pentan-3-yl)-1H-pyrazol-4-yl)pyrazolo[1,5-a]pyrazin-6-yl)-1H-pyrazol-1-yl)ethyl)cyclopropanamine trifluoroacetate], the IC50 in assay [1] lay within 10 to 100 nM; in assay [2] it was 1000 to 10000 nM; in assay [3], 10 to 100 nM; in assay [4], 10 to 100 nM.

Take `CCC(CC)n1cc(-c2nc(-c3cnn(CCN4CCCC4)c3)cn3nccc23)cn1` [Example 135, 4-(1-(pentan-3-yl)-1H-pyrazol-4-yl)-6-(1-(2-(pyrrolidin-1-yl)ethyl)-1H-pyrazol-4-yl)pyrazolo[1,5-a]pyrazine]: the IC50 is 10 to 100 nM in assay [1], 1000 to 10000 nM in assay [2], 1000 to 10000 nM in assay [3] and 10 to 100 nM in assay [4].

On to `CCC(CC)n1cc(-c2nc(-c3cnn(CCN4CC[C@@H](OC)C4)c3)cn3nccc23)cn1` [Example 136, (R)-6-(1-(2-(3-methoxypyrrolidin-1-yl)ethyl)-1H-pyrazol-4-yl)-4-(1-(pentan-3-yl)-1H-pyrazol-4-yl)pyrazolo[1,5-a]pyrazine], for which the IC50 in assay [1] lay in the range of 10 to 100 nM; in assay [2] it was 1000 to 10000 nM; in assay [3] it was 100 to 1000 nM; in assay [4], 10 to 100 nM.

For the molecule `CCC(CC)n1cc(-c2nc(-c3cnn(CCN4CC[C@H](OC)C4)c3)cn3nccc23)cn1` [Example 137, (S)-6-(1-(2-(3-methoxypyrrolidin-1-yl)ethyl)-1H-pyrazol-4-yl)-4-(1-(pentan-3-yl)-1H-pyrazol-4-yl)pyrazolo[1,5-a]pyrazine], the IC50 in assay [1] lay in the range of 10 to 100 nM; in assay [2] it was 1000 to 10000 nM; in assay [3], 100 to 1000 nM; in assay [4], 10 to 100 nM.

As to `CCC(CC)n1cc(-c2nc(-c3cnn(CCN4CC(F)C4)c3)cn3nccc23)cn1` [Example 138, 6-(1-(2-(3-fluoroazetidin-1-yl)ethyl)-1H-pyrazol-4-yl)-4-(1-(pentan-3-yl)-1H-pyrazol-4-yl)pyrazolo[1,5-a]pyrazine], the IC50 in assay [1] lay within 10 to 100 nM; in assay [2] it was 1000 to 10000 nM; in assay [3], 1000 to 10000 nM; in assay [4], 10 to 100 nM.

As to `CCC(CC)n1cc(-c2nc(-c3cnn(CCN4CCC(O)CC4)c3)cn3nccc23)cn1` [Example 139, 1-(2-(4-(4-(1-(pentan-3-yl)-1H-pyrazol-4-yl)pyrazolo[1,5-a]pyrazin-6-yl)-1H-pyrazol-1-yl)ethyl)piperidin-4-ol], the IC50 was in the range of 10 to 100 nM in assay [1], 1000 to 10000 nM in assay [2], 100 to 1000 nM in assay [3] and 100 to 1000 nM in assay [4].

Turning to `CCC(CC)n1cc(-c2nc(-c3cnn(CCN4CC[C@@H](O)C4)c3)cn3nccc23)cn1` [Example 140, (R)-1-(2-(4-(4-(1-(pentan-3-yl)-1H-pyrazol-4-yl)pyrazolo[1,5-a]pyrazin-6-yl)-1H-pyrazol-1-yl)ethyl)pyrrolidin-3-ol], the IC50 lay within 10 to 100 nM in assay [1], 1000 to 10000 nM in assay [2], 1000 to 10000 nM in assay [3] and 10 to 100 nM in assay [4].

Regarding `CCC(CC)n1cc(-c2nc(-c3cnn(CCN4CC[C@H](O)C4)c3)cn3nccc23)cn1` [Example 141, (S)-1-(2-(4-(4-(1-(pentan-3-yl)-1H-pyrazol-4-yl)pyrazolo[1,5-a]pyrazin-6-yl)-1H-pyrazol-1-yl)ethyl)pyrrolidin-3-ol], the half-maximal inhibitory concentration (IC50) in assay [1] fell in the range of 10 to 100 nM; in assay [2], 1000 to 10000 nM; in assay [3], 1000 to 10000 nM; in assay [4] it was 10 to 100 nM.

Turning to `CCC(CC)n1cc(-c2nc(-c3cnn(CCN[C@H]4CCN(C)C4=O)c3)cn3nccc23)cn1` [Example 142, (S)-1-methyl-3-((2-(4-(4-(1-(pentan-3-yl)-1H-pyrazol-4-yl)pyrazolo[1,5-a]pyrazin-6-yl)-1H-pyrazol-1-yl)ethyl)amino)pyrrolidin-2-one], the IC50 lay within 10 to 100 nM in assay [1], 1000 to 10000 nM in assay [2], 1000 to 10000 nM in assay [3] and 10 to 100 nM in assay [4].

Consider `CCC(CC)n1cc(-c2nc(-c3cnn(CCN[C@@H]4CCN(C)C4=O)c3)cn3nccc23)cn1` [Example 143, (R)-1-methyl-3-((2-(4-(4-(1-(pentan-3-yl)-1H-pyrazol-4-yl)pyrazolo[1,5-a]pyrazin-6-yl)-1H-pyrazol-1-yl)ethyl)amino)pyrrolidin-2-one], for which the IC50 was in the range of 100 to 1000 nM in assay [1], 1000 to 10000 nM in assay [2], 1000 to 10000 nM in assay [3] and 10 to 100 nM in assay [4].

With `CCC(CC)n1cc(-c2nc(-c3cnn(CCN4CCNC(=O)C4)c3)cn3nccc23)cn1` [Example 144, 4-(2-(4-(4-(1-(pentan-3-yl)-1H-pyrazol-4-yl)pyrazolo[1,5-a]pyrazin-6-yl)-1H-pyrazol-1-yl)ethyl)piperazin-2-one], the IC50 in assay [1] lay in the range of 10 to 100 nM; in assay [2], 1000 to 10000 nM; in assay [3], 100 to 1000 nM; in assay [4] it was 10 to 100 nM.

Take `CCC(CC)n1cc(-c2nc(-c3cnn(CCNC4CC(CO)C4)c3)cn3nccc23)cn1` (centres unmarked) [Example 145, (3-((2-(4-(4-(1-(pentan-3-yl)-1H-pyrazol-4-yl)pyrazolo[1,5-a]pyrazin-6-yl)-1H-pyrazol-1-yl)ethyl)amino)cyclobutyl)methanol]: the IC50 was in the range of 100 to 1000 nM in assay [1], 1000 to 10000 nM in assay [2], 100 to 1000 nM in assay [3] and 10 to 100 nM in assay [4].
